Reference: PubChem BioAssay (NCI)
Values joined by “and” are separate entries in the source; they are usually repeats but may differ in a detail not shown here. Equal entries are not always repeated.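 Where inhibition never reached the appropriate level, the endpoint shown equals the highest concentration tested. Otherwise, values were interpolated linearly from a five-concentration, 48-hour dose response in 96-well plates. GI50 is the concentration that inhibits growth by half. TGI denotes the concentration required for complete inhibition of growth.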

Key:
Assay in all cases: growth of human tumour cells (NCI), 48 h
MDA-MB-435 = test system: MDA-MB-435
MDA-MB-231 breast = test system: MDA-MB-231 breast
SF-295 CNS = test system: SF-295 CNS
MCF7 breast = test system: MCF7 breast
DU-145 prostate = test system: DU-145 prostate
SR leukemia = test system: SR leukemia
SK-OV-3 ovarian = test system: SK-OV-3 ovarian
LOX IMVI melanoma = test system: LOX IMVI melanoma
SN12C renal = test system: SN12C renal
OVCAR-5 ovarian = test system: OVCAR-5 ovarian
HCT-116 colon = test system: HCT-116 colon

SMILES	TGI (MDA-MB-435)	TGI (MDA-MB-231 breast)	TGI (SF-295 CNS)	TGI (MCF7 breast)	TGI (DU-145 prostate)	TGI (SR leukemia)	TGI (SK-OV-3 ovarian)	TGI (LOX IMVI melanoma)	TGI (SN12C renal)	TGI (OVCAR-5 ovarian)	TGI (HCT-116 colon)	GI50 (MDA-MB-435)	GI50 (MDA-MB-231 breast)	GI50 (SF-295 CNS)	GI50 (SR leukemia)	GI50 (MCF7 breast)	GI50 (DU-145 prostate)
CC(=O)NC1C(OCc2ccccc2)OC(CO)C(O)C1OCC(=O)N[C@@H](C)C(=O)N[C@H](CCC(=O)NCCNCCNc1c2ccccc2nc2cccc([N+](=O)[O-])c12)C(N)=O (some centres undefined)	71.1 µM	> 100 µM	> 100 µM	> 100 µM	> 100 µM	> 100 µM	> 100 µM	61.9 µM	> 100 µM	> 100 µM	54.8 µM	–	–	–	–	–	–
O=c1oc2ccccc2c(O)c1C(c1cc(OCc2ccccc2)cc(OCc2ccccc2)c1)c1c(O)c2ccccc2oc1=O	31.3 µM	34.5 µM	24 µM	48.5 µM	24.5 µM	15 µM	20.1 µM	77.5 µM	21.3 µM	34.5 µM	17.5 µM	–	–	–	–	–	–
Cc1c(Cl)ccc2c(=O)c3cccc(CC(=O)O)c3oc12	> 100 µM	> 100 µM	> 100 µM	> 100 µM	> 100 µM	> 100 µM	–	> 100 µM	> 100 µM	–	> 100 µM	–	–	–	–	–	–
O=c1c2ccccc2[nH]c(=S)n1-c1ccc(N=Nc2cccc3c(O)cccc23)cc1	68.9 µM	> 100 µM	> 100 µM	35.2 µM	> 100 µM	> 100 µM	> 100 µM	> 100 µM	> 100 µM	> 100 µM	> 100 µM	–	–	–	–	–	–
Oc1ccccc1C(c1cc2c(cc1O)OCO2)N1CCOCC1 (centres undefined)	34.9 µM	36.1 µM	41.6 µM	38.3 µM	> 100 µM	24.6 µM	> 100 µM	43.4 µM	34.3 µM	57.8 µM	31.5 µM	–	–	–	–	–	–
N#Cc1c(N)[nH]c(=S)c(C#N)c1-c1cccc(Cl)c1	49.7 µM	> 100 µM	> 100 µM	> 100 µM	> 100 µM	40.6 µM	–	> 100 µM	56.3 µM	> 100 µM	60.6 µM	–	–	–	–	–	–
COc1ccc(-c2c(C#N)c(S)n(C3OC(COC(C)=O)C(OC(C)=O)C(OC(C)=O)C3OC(C)=O)c(=O)c2C#N)cc1 (centres undefined)	> 100 µM and 50.6 µM	83.5 µM and > 100 µM	> 100 µM	> 100 µM	> 100 µM	> 100 µM and 59.3 µM	75.8 µM and > 100 µM	> 100 µM	> 100 µM	> 100 µM	> 100 µM	56.9 µM and 21.3 µM	21.7 µM and 55 µM	36.1 µM and 87.1 µM	3.43 µM and 17.9 µM	–	–
Cc1ccc(N=Nc2c3c(c(O)c4ccccc24)CCC(C)(C)O3)cc1	31.7 µM	> 100 µM	28.8 µM	27.2 µM	26 µM	38.8 µM	> 100 µM	28.6 µM	28.5 µM	34.8 µM	49.2 µM	–	–	–	–	–	–
c1cc2nnc1SCCSCCSc1ccc(nn1)SCCSCCS2	> 100 µM	> 100 µM	> 100 µM	> 100 µM	> 100 µM	> 100 µM	> 100 µM	> 100 µM	> 100 µM	> 100 µM	> 100 µM	–	–	–	–	–	–
O=C(/C(=C(/Br)I)c1ccccc1)c1ccccc1	82.6 µM	60.1 µM	69.6 µM	94.4 µM	30.9 µM	> 100 µM	> 100 µM	32.3 µM	49.9 µM	> 100 µM	31.7 µM	–	–	–	–	–	–
COc1ccc(Nc2c(C#N)c3n(c4ccccc24)c2ccccc2[n+]3C)cc1OC	14.8 µM	8.25 µM	11 µM	21.7 µM	18.5 µM	> 100 µM	23.3 µM	7.23 µM	–	10.4 µM	7.56 µM	–	–	–	–	–	–
CO[C@@H](C(=O)OC1C=CC2(CC1)C(=O)N(C)c1ccccc12)c1ccccc1 (some centres undefined)	> 100 µM	> 100 µM	> 100 µM	> 100 µM	> 100 µM	> 100 µM	> 100 µM	> 100 µM	> 100 µM	> 100 µM	> 100 µM	–	–	–	–	–	–
COC(=O)C(=O)CC(=O)CCn1ncc(Cl)c(Cl)c1=O	12.8 µM	20.7 µM	23 µM	> 100 µM	35 µM	5.76 µM	40.8 µM	15.3 µM	29.9 µM	34.9 µM	23.7 µM	3.37 µM	7.88 µM	–	–	15.6 µM	18.3 µM
Cc1ccccc1C1OC1C(=O)c1ccccc1N (centres undefined)	43.2 µM	> 100 µM	–	> 100 µM	> 100 µM	> 100 µM	> 100 µM	> 100 µM	> 100 µM	> 100 µM	> 100 µM	–	–	–	–	–	–
CCOC(=O)c1sc2nc(SC)nc3c2c1N=CN3c1ccc(Br)cc1	> 100 µM	> 100 µM	> 100 µM	> 100 µM	> 100 µM	> 100 µM	> 100 µM	> 100 µM	> 100 µM	> 100 µM	> 100 µM	–	–	–	–	–	–
Cc1sc2nc3n(c(=O)c2c1C)N=CN(c1ccccc1)C3	> 100 µM	> 100 µM	> 100 µM	> 100 µM	> 100 µM	> 100 µM	> 100 µM	> 100 µM	> 100 µM	> 100 µM	> 100 µM	–	–	–	–	–	–
